How the values were obtained:
[1] = system: mitochondrial and cytosolic aldehyde dehydrogenase; settings: in vitro; cited from earlier work
[2] = Safety and pharmacokinetic study of different GTN concentrations compared with sub-lingual Nitrostat; type: in vivo, human

For `O=[N+]([O-])OCC(CO[N+](=O)[O-])O[N+](=O)[O-]` [GTN, Glyceryl trinitrate], the “time of peak rate of formation of nitric oxide from GTN” value [1] is given as “approximately 100 seconds”, the “plasma concentration versus dosage level” value ([2]; in vivo) is given as “increased proportionally with increasing dosage level” and the Tmax ([2]; male, human, in vivo, topical or ocular, pharmacokinetic modelling, topical gel, read-out: Tmax of initial zero order entry into systemic circulation) is given as 10 to 12 min. For the same compound, the “first appearance of GTN after application (lag time)” value ([2]; pharmacokinetic modelling, topical gel) was “around 4 minutes”.

— patent US20210000757A1, “TOPICAL COMPOSITION” (Futura Medical Developments Limited, priority 2017, published 2021)
